Literature values in patent publication US20040042990A1, “Composition containing oxidation-sensitive hydrophilic active principle and maleic anhydride copolymer, and use thereof” (L'OREAL, Paris, France, priority 2002, published 2004).

Test system: reconstructed skin

O=C1O[C@H]([C@@H](O)CO)C([O-])=C1OP(=O)([O-])[O-].O=C1O[C@H]([C@@H](O)CO)C([O-])=C1OP(=O)([O-])[O-].[Mg+2].[Mg+2].[Mg+2] [magnesium ascorbyl phosphate]
number of fibroblasts in the lattice (reconstructed skin culture medium): significant increase | synthesis of proteins of the extracellular matrix (collagens IV and VII, laminin) (reconstructed skin, in particular at the dermoepidermal junction): significant stimulation
